# In PMC8997913, “Lichen Secondary Metabolites Inhibit the Wnt/β-Catenin Pathway in Glioblastoma Cells and Improve the Anticancer Effects of Temozolomide” (Cells, 2022):
# Key:
# NIH3T3 cells = test system: NIH3T3 cells; parameters: method as in PMID 35190352; conditions: NIH3T3, ref [30]; cited from earlier work
# HeLa cells = test system: HeLa cells; parameters: method as in PMID 35190352; conditions: ref [30]; cited from earlier work
# A-172 cells = conditions: taken from the literature, ref [5]; read-out: IC50 [uM] ± SEM A-172; cited from earlier work
# T98G cells = assay: ROS (superoxide) generation, flow cytometry, T98G; format: cell-based, human; conditions: 48 h
# Protocol: Based on the MTT test, the lichen secondary metabolite concentrations allowing the survival of more than 70% of cells were chosen for the subsequent experiments. The compounds were added as follows: A-172 cells—atranorin 25 µM, caperatic acid 50 µM, physodic acid 25 µM, squamatic acid 25 µM, salazinic acid 50 µM, and lecanoric acid 100 µM; T98G cells—atranorin 50 µM, caperatic acid 100 µM, physodic acid 25 µM, squamatic acid 50 µM, salazinic acid 100 µM, and lecanoric acid 100 µM; U-138 MG cells—atranorin 25 µM, caperatic acid 50 µM, physodic acid 25 µM, squamatic acid 50 µM, salazinic acid 50 µM, and lecanoric acid 100 µM. […]
# The intracellular detection of superoxide radicals was detected by flow cytometric analysis after the staining with dihydroethidium, using The Muse® Oxidative Stress Kit (Merck, Darmstadt, Germany). Briefly, 100,000 cells per well were seeded on 6-well plates and after a 24 h incubation they were treated with the analyzed lichen secondary metabolites in the concentrations allowing >70% of cell survival; cells treated with DMSO were used as the negative control. […] The obtained data were evaluated using Muse® Analysis Software ver. […]
smiles,measurement,setting,value
Cc1cc(OC(=O)c2c(C)cc(O)cc2O)cc(O)c1C(=O)O [Lecanoric acid],cell cycle distribution,NIH3T3 cells,cell cycle arrest in the G2 phase
same,cell cycle distribution,HeLa cells,cell cycle arrest in the G2 phase
Cc1cc(O)c(C=O)c2c1C(=O)Oc1c(CO)c(O)c3c(c1O2)C(O)OC3=O (stereo not shown) [Salazinic acid],IC50,A-172 cells,> 100 µM
COc1cc(C)c(C(=O)Oc2cc(C)c(C(=O)O)c(O)c2C)c(O)c1C(=O)O [Squamatic acid],oxidative stress (superoxide) induction,T98G cells,induce oxidative stress
